Measurements published in ChEMBL document CHEMBL1201862, “PubChem BioAssay data set” (2004).
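Where inhibition never reached the appropriate level, the endpoint shown equals the highest concentration tested. Otherwise, values were interpolated linearly from a five-concentration, 48-hour dose response in 96-well plates. The concentration for 50% growth inhibition is given as GI50.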 Activity calls are given as the source filed them. Cut-off read from the data, not from the text of the source: active = GI50 up to about 1.1 µM and inactive = higher.

What was measured:
Assay in all cases: NCI anticancer screen, dose series, 48 h
K562 = test system: K562
RXF 393 = test system: RXF 393
OVCAR-3 = test system: OVCAR-3
OVCAR-4 = test system: OVCAR-4
SK-MEL-5 = test system: SK-MEL-5
OVCAR-8 = test system: OVCAR-8
SK-MEL-28 = test system: SK-MEL-28
CCRF-CEM = test system: CCRF-CEM
IGROV-1 = test system: IGROV-1
U-251 = test system: U-251
MDA-N = test system: MDA-N
PC-3 = test system: PC-3
M14 = test system: M14
Hs-578T = test system: Hs-578T
HCT-15 = test system: HCT-15
SF-295 = test system: SF-295
KM12 = test system: KM12
SNB-19 = test system: SNB-19
HT-29 = test system: HT-29
OVCAR-5 = test system: OVCAR-5
UACC-257 = test system: UACC-257
CAKI-1 = test system: CAKI-1
MCF7 = test system: MCF7
SK-MEL-2 = test system: SK-MEL-2
MDA-MB-435 = test system: MDA-MB-435
SF-539 = test system: SF-539
SK-OV-3 = test system: SK-OV-3
TK-10 = test system: TK-10
NCI-H460 = test system: NCI-H460
EKVX = test system: EKVX
COLO 205 = test system: COLO 205
SN12C = test system: SN12C
A549 = test system: A549
HCT-116 = test system: HCT-116
MOLT-4 = test system: MOLT-4
DU-145 = test system: DU-145
SF-268 = test system: SF-268
ACHN = test system: ACHN
HL-60 = test system: HL-60
UACC-62 = test system: UACC-62
NCI-H226 = test system: NCI-H226
786-0 = test system: 786-0
BT-549 = test system: BT-549
NCI-H23 = test system: NCI-H23
NCI/ADR-RES = test system: NCI/ADR-RES
RPMI-8226 = test system: RPMI-8226
HOP-92 = test system: HOP-92
LOX IMVI = test system: LOX IMVI
SW-620 = test system: SW-620
HOP-62 = test system: HOP-62
UO-31 = test system: UO-31
NCI-H522 = test system: NCI-H522
SR = test system: SR
MDA-MB-231 = test system: MDA-MB-231
Malme-3M = test system: Malme-3M
T47D = test system: T47D
HCC 2998 = test system: HCC 2998
SNB-75 = test system: SNB-75
A498 = test system: A498

Measured: GI50

O=S(=O)(Nc1nc2ccccc2nc1N1CCCCCC1)c1ccccc1
inactive: K562 > 100 µM | RXF 393 19.1 µM | OVCAR-3 17.1 µM | OVCAR-4 4.05 µM | SK-MEL-5 14.3 µM | OVCAR-8 29 µM | SK-MEL-28 28.2 µM | CCRF-CEM 34.5 µM | IGROV-1 20.8 µM | U-251 18.6 µM | MDA-N > 100 µM | PC-3 19.4 µM | M14 22.5 µM | Hs-578T 17.5 µM | SF-295 24.1 µM | KM12 15.8 µM | SNB-19 28.2 µM | HT-29 27.6 µM | OVCAR-5 57.3 µM | UACC-257 24.5 µM | CAKI-1 > 100 µM | MCF7 28.6 µM | SK-MEL-2 16.3 µM | MDA-MB-435 23 µM | SF-539 29.2 µM | SK-OV-3 28.2 µM | TK-10 16.8 µM | NCI-H460 15.7 µM | EKVX 24.5 µM | COLO 205 > 100 µM | SN12C > 100 µM | A549 24.7 µM | HCT-116 > 100 µM | MOLT-4 16.4 µM | DU-145 > 100 µM | SF-268 37.7 µM | ACHN 21.1 µM | HL-60 23.2 µM | UACC-62 18.4 µM | NCI-H226 27.9 µM | 786-0 > 100 µM | BT-549 19 µM | NCI-H23 19.1 µM | NCI/ADR-RES 25.8 µM | RPMI-8226 48.2 µM | HOP-92 7.8 µM | LOX IMVI > 100 µM | SW-620 22.7 µM | HOP-62 23 µM | UO-31 12.4 µM | NCI-H522 19.1 µM | SR 25.3 µM | MDA-MB-231 > 100 µM | Malme-3M 25.4 µM | T47D > 100 µM | HCC 2998 11.8 µM | SNB-75 21 µM
17.2 µM: HCT-15

COC1=C(Br)[C@H](O)[C@@]2(C=C1Br)CC(C(=O)NCCCCCNC(=N)N)=NO2 [APLYSINAMISINE II]
> 10 µM: HCT-15
inactive: K562 > 10 µM | RXF 393 > 10 µM | OVCAR-3 > 10 µM | OVCAR-4 > 10 µM | SK-MEL-5 > 10 µM | OVCAR-8 > 10 µM | SK-MEL-28 > 10 µM | CCRF-CEM > 10 µM | IGROV-1 > 10 µM | U-251 > 10 µM | MDA-N > 10 µM | PC-3 > 10 µM | M14 > 10 µM | Hs-578T > 10 µM | SF-295 > 10 µM | KM12 > 10 µM | SNB-19 > 10 µM | HT-29 > 10 µM | OVCAR-5 > 10 µM | UACC-257 > 10 µM | MCF7 > 10 µM | SK-MEL-2 > 10 µM | MDA-MB-435 > 10 µM | SF-539 > 10 µM | SK-OV-3 > 10 µM | TK-10 > 10 µM | NCI-H460 > 10 µM | COLO 205 > 10 µM | SN12C > 10 µM | A498 > 10 µM | A549 > 10 µM | HCT-116 > 10 µM | MOLT-4 > 10 µM | DU-145 > 10 µM | SF-268 > 10 µM | ACHN > 10 µM | HL-60 > 10 µM | UACC-62 > 10 µM | NCI-H226 > 10 µM | 786-0 > 10 µM | BT-549 > 10 µM | NCI-H23 > 10 µM | NCI/ADR-RES > 10 µM | RPMI-8226 > 10 µM | LOX IMVI > 10 µM | SW-620 > 10 µM | HOP-62 > 10 µM | UO-31 > 10 µM | NCI-H522 > 10 µM | SR 6.87 µM | MDA-MB-231 > 10 µM | Malme-3M > 10 µM | T47D > 10 µM | HCC 2998 > 10 µM | SNB-75 6.79 µM
